Laboratory results from the RepoRT retention time repository.

Assay: Waters XBridge C18, 0.2 mL/min; A: water + 0.1% formic acid; B: methanol + 0.1% formic acid; gradient (min/%B) 0/10 4/50 17/95 25/95
Details: stereoisomer not certain

LC retention time [min]	SMILES
9.9	CCC(C)OC(=O)N1CCCCC1CCO (stereo not drawn)
4.7	CCCC1CC(C(=O)NC(C(C)O)C2OC(SC)C(O)C(O)C2O)N(C)C1 (stereo not drawn)
4.7	CC(C)NCC(O)COc1ccc(CC(=O)O)cc1 (stereo not drawn)
5.6	CNC(=C[N+](=O)[O-])NCCSCc1ccc(CN(C)C)o1
9.3	NC(=O)N1c2ccccc2C=Cc2ccccc21
4.4	Nc1ccc(S(=O)(=O)Nc2ccccn2)cc1
7.2	CC(C)NCC(O)COc1cccc2ccccc12 (stereo not drawn)
11	O=P(c1ccccc1)(c1ccccc1)c1ccccc1
5.7	Cc1cc(NS(=O)(=O)c2ccc(N)cc2)no1
12	COc1ccc2cc(C(C)C(=O)O)ccc2c1 (stereo not drawn)
3.5	CC(C)NCC(O)COc1ccc(CC(N)=O)cc1 (stereo not drawn)
5.9	Cc1cc(=O)n(-c2ccccc2)n1C
4.7	COc1cc(Cc2cnc(N)nc2N)cc(OC)c1OC
10	CCN(CC)C(=O)c1cccc(C)c1
7.4	CN(C)CCOC(c1ccccc1)c1ccccc1
11	CCCCC1=NC2(CCCC2)C(=O)N1Cc1ccc(-c2ccccc2-c2nn[nH]n2)cc1

LC retention time [min]	SMILES
12	CCCCC(=O)N(Cc1ccc(-c2ccccc2-c2nn[nH]n2)cc1)C(C(=O)O)C(C)C (stereo not drawn)
16	Cc1cccc(Nc2ccccc2C(=O)O)c1C
1.2	CN(C)C(=N)N=C(N)N
8	NC(=O)N1c2ccccc2CC(=O)c2ccccc21
4.6	CCN1CCCC1CNC(=O)c1cc(S(=O)(=O)CC)c(N)cc1OC (stereo not drawn)
1.2	CNC(=C[N+](=O)[O-])NCCS(=O)Cc1ccc(CN(C)C)o1 (stereo not drawn)
5.2	Cc1cc(C)nc(NS(=O)(=O)c2ccc(N)cc2)n1
6.7	CC(C)NCC(O)COc1ccc(COCCOC(C)C)cc1 (stereo not drawn)
7.2	Cc1cccc2n[nH]nc12
5.8	c1ccc2n[nH]nc2c1
5.2	CCN(CC)CC(=O)Nc1c(C)cccc1C
4.2	Nc1ccc(S(=O)(=O)Nc2nccs2)cc1
7.9	O=C(O)c1ccc(-c2ccccc2-c2nn[nH]n2)cc1
10	CCC1OC(=O)C(C)C(OC2CC(C)(OC)C(O)C(C)O2)C(C)C(OC2OC(C)CC(N(C)C)C2O)C(C)(O)CC(C)C(=NOCOCCOC)C(C)C(O)C1(C)O (stereo not drawn)
3.6	CN=C(NC#N)NCCSCc1nc[nH]c1C
8.6	CC(C)(C(=O)O)c1ccc(C(O)CCCN2CCC(C(O)(c3ccccc3)c3ccccc3)CC2)cc1 (stereo not drawn)

SMILES	LC retention time [min]
CC(C)OP(=O)(OC(C)C)SCc1ccccc1	14
COC=C(C(=O)OC)c1ccccc1Oc1cc(Oc2ccccc2C#N)ncn1	11
COCC(=O)N(c1c(C)cccc1C)C(C)C(=O)OC (stereo not drawn)	10
COc1ccc(C(CN(C)C)C2(O)CCCCC2)cc1 (stereo not drawn)	6.9
COc1ccc(CN2CCNCC2)c(OC)c1OC	3.5
COC(=O)Nc1nc2ccccc2[nH]1	4.7
COc1cccc(C2(O)CCCCC2CN(C)C)c1 (stereo not drawn)	5.7
CC(C)N1C(=O)c2ccccc2NS1(=O)=O	8.9
CC(C)OC(=O)C(C(=O)OC(C)C)=C1SCCS1	13
Cc1cccc2sc3nncn3c12	7.3
CN(C(=O)COc1nc2ccccc2s1)c1ccccc1	13
